Literature values as cited in US20260337593A1, “METHOD AND MEANS FOR ENGINEERING NON-RIBOSOMAL PEPTIDES” (JOHANN WOLFGANG GOETHE-UNIVERSITÄT FRANKFURT AM MAIN, priority 2022, published 2026).

Target: Mycobacterium tuberculosis proteasome (Mycobacterium tuberculosis, UniProt P9WHT9)
Conditions: role: inhibitor; literature reference 60

Chain of Mycobacterium tuberculosis proteasome (P9WHT9 whole entry, looked up): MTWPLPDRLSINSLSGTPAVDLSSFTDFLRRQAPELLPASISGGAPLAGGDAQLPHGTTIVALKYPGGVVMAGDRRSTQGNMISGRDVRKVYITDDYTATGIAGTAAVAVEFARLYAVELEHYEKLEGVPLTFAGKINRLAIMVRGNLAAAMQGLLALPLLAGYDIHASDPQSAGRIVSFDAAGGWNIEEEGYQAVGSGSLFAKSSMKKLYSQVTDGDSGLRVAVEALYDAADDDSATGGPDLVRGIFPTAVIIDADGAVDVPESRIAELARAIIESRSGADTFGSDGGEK

SMILES: CCCCCCCCC[C@@H](O)CC(=O)N[C@@H](CC(N)=O)C(=O)N[C@@H](CCC(N)=O)C(=O)N[C@H](C=O)CC(C)C [fellutamide B]
- binding of the active site's threonine: reversible binding
